Source: ChEMBL document CHEMBL3217557, “Triazole-substituted N-hydroxyindol-2-carboxylates as inhibitors of isoform 5 of human lactate dehydrogenase (hLDH5)” (Medchemcomm, 2011)

Key:
[1] = molecular target: T1, L-lactate dehydrogenase A chain (Homo sapiens, UniProt P00338); assay: Competitive inhibition of human LDHA4 using 0.025 to 1 mM sodium pyruvate as substrate measured every 30 secs for 5 mins by Lineweaver-Burk plot analysis in presence of NADH
[2] = molecular target: T1, L-lactate dehydrogenase A chain; assay: Competitive inhibition of human LDHA4 using sodium pyruvate as substrate measured every 30 secs for 5 mins by Lineweaver-Burk plot analysis in presence of 12.5 to 150 uM NADH
[3] = molecular target: T1, L-lactate dehydrogenase A chain; assay: Inhibition of human LDHA4 using sodium pyruvate as substrate assessed as NADH oxidation at 125 uM measured every 30 secs for 5 mins by spectrophotometric analysis relative to control
Homo sapiens = organism: Homo sapiens; assay: Inhibition of human LDH1 using sodium pyruvate as substrate assessed as NADH oxidation at 125 uM measured every 30 secs for 5 mins by spectrophotometric analysis relative to control
[4] = Competitive inhibition of human LDH1 using sodium pyruvate as substrate measured every 30 secs for 5 mins by Lineweaver-Burk plot analysis in presence of 12.5 to 150 uM NADH

| Ki [1] | Ki [2] | inhibition [3] | inhibition (Homo sapiens) | Ki [4] | Compound |
| --- | --- | --- | --- | --- | --- |
| 37 µM | 20 µM | 83% | 32% |  | O=C(O)c1cc2ccc(-n3cc(CCCc4cn(-c5ccc6cc(C(=O)O)n(O)c6c5)nn4)nn3)cc2n1O |
|  |  | < 15% |  |  | CCCCc1cn(-c2cccc3c2cc(C(=O)O)n3O)nn1 |
|  |  | < 15% |  |  | O=C(O)c1cccc(-c2cn(-c3ccc4c(c3)cc(C(=O)O)n4O)nn2)c1 |
|  |  | < 15% |  |  | O=C(O)c1cc2cc(-n3cc(-c4ccccc4)nn3)ccc2n1O |
| 44 µM | 28 µM | 73% | < 3% |  | O=C(O)c1cc2c(-n3cc(-c4ccccc4)nn3)cccc2n1O |
| 45 µM | 50 µM | 65% | < 3% |  | O=C(O)c1cccc(-c2cn(-c3ccc4cc(C(=O)O)n(O)c4c3)nn2)c1 |
| 86 µM | 57 µM | 60% | 60% | 89 µM | O=C(O)c1cccc(-c2cn(-c3cccc4c3cc(C(=O)O)n4O)nn2)c1 |
|  |  | < 15% |  |  | O=C(O)c1cc2c(-n3cc(CCO)nn3)cccc2n1O |
